Measured values: patent US20240116951A1, “HETEROCYCLIC COMPOUNDS AND USES THEREOF” (Kumquat Biosciences Inc., priority 2022, published 2024)

Key:
Type in all cases: binding
KRAS G12S = molecular target: T1, KRAS G12S (Homo sapiens, UniProt P01116, G12S); assay: HTRF assay of K-Ras G12S interaction with SOS1 (PPI-HTRF); settings: 5 nM KRAS G12S, read-out: PPI-HTRF-5 nM KRAS G12S
T1 construct: made in house; host or cells: E. coli, e.g. BL21 (DE3)
Summary of the method: (§1)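 Equilibrium binding between GST-K-Ras and His-tagged human SOS1 is measured by FRET from a europium anti-GST donor to an XL665 anti-His acceptor. Compounds are run in duplicate at 10, 2.5, 0.63, 0.16, 0.04 and 0.01 μM, and IC50 is calculated from the 665/620 nm ratio.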

KRAS WT = molecular target: T2, KRAS WT (Homo sapiens, UniProt P01116); assay: HTRF assay of wildtype K-Ras interaction with SOS1 (PPI-HTRF); settings: HTRF, 5 nM KRAS WT; read-out: PPI-HTRF-5 nM KRAS WT
T2 construct: made in house; host or cells: E. coli, e.g. BL21 (DE3)
T2 sequence (P01116 1-188 isoform P01116-2): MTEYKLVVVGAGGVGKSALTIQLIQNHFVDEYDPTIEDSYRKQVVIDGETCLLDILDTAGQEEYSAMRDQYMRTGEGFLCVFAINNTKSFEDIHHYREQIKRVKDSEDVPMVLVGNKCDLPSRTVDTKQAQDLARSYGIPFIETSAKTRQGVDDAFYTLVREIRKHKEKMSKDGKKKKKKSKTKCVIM
Summary of the method: as §1

KRAS G12D = molecular target: T3, KRAS G12D (Homo sapiens, UniProt P01116, G12D); assay: HTRF assay of K-Ras G12D interaction with SOS1 (PPI-HTRF); settings: HTRF, 5 nM KRAS G12D; read-out: PPI-HTRF-5 nM KRAS G12D
T3 construct: made in house; host or cells: E. coli, e.g. BL21 (DE3)
T3 sequence (P01116 1-188 isoform P01116-2 G12D): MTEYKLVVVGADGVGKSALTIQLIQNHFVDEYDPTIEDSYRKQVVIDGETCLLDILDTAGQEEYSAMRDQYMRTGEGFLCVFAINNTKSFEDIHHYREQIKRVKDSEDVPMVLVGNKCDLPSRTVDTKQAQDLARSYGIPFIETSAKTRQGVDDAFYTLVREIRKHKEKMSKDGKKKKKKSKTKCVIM
Summary of the method: as §1

Measured: IC50

T1 sequence (P01116 1-188 isoform P01116-2 G12S): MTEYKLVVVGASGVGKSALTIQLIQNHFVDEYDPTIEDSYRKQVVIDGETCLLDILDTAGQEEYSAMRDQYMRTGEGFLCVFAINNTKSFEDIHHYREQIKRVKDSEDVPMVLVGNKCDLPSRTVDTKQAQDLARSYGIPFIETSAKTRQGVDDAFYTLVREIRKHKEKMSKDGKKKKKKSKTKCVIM

N#Cc1c(N)sc2c(F)ccc(-c3c(Cl)cc4c(N5CCC6(C5)N(C(=O)n5cncn5)CC6(F)F)nc(OC[C@@]56CCCN5C[C@H](F)C6)nc4c3F)c12 (stereo partly drawn) [Compound 283, 2-amino-4-(6-chloro-4-(3,3-difluoro-1-(1H-1,2,4-triazole-1-carbonyl)-1,6-diazaspiro[3.4]octan-6-yl)-8-fluoro-2-(((2R,7aS)-2-fluorotetrahydro-1H-pyrrolizin-7a(5H)-yl)methoxy)quinazolin-7-yl)-7-fluorobenzo[b]thiophene-3-carbonitrile]
< 5 µM: all assays above

Cc1cc(N)nc(-c2c(Cl)cc3c(N4CCC5(CCN5C(=O)n5cncn5)C4)nc(OC[C@@]45CCCN4C[C@H](F)C5)nc3c2F)c1C(F)(F)F (stereo partly drawn) [Compound 286, (6-(7-(6-amino-4-methyl-3-(trifluoromethyl)pyridin-2-yl)-6-chloro-8-fluoro-2-(((2R,7aS)-2-fluorotetrahydro-1H-pyrrolizin-7a(5H)-yl)methoxy)quinazolin-4-yl)-1,6-diazaspiro[3.4]octan-1-yl)(1H-1,2,4-triazol-1-yl)methanone]
< 5 µM: all assays above

Cc1nc(C(C)C)nn1C(=O)N1CCOCC12CCN(c1nc(OC[C@@]34CCCN3C[C@H](F)C4)nc3c(F)c(-c4ccc(F)c5sc(N)c(C#N)c45)c(Cl)cc13)C2 (stereo partly drawn) [Compound 337, 2-Amino-4-(6-chloro-8-fluoro-2-(((2R,7aS)-2-fluorotetrahydro-1H-pyrrolizin-7a(5H)-yl)methoxy)-4-(6-(3-isopropyl-5-methyl-1H-1,2,4-triazole-1-carbonyl)-9-oxa-2,6-diazaspiro[4.5]decan-2-yl)quinazolin-7-yl)-7-fluorobenzo[b]thiophene-3-carbonitrile]
< 5 µM: all assays above

N#Cc1c(N)sc2c(F)ccc(-c3c(Cl)cc4c(N5CCCC6(CCN6)C5)nc(OC[C@@]56CCCN5C[C@H](F)C6)nc4c3F)c12 (stereo partly drawn) [Compound 236, 2-amino-4-(6-chloro-8-fluoro-2-(((2R,7aS)-2-fluorotetrahydro-1H-pyrrolizin-7a(5H)-yl)methoxy)-4-(1,6-diazaspiro[3.5]nonan-6-yl)quinazolin-7-yl)-7-fluorobenzo[b]thiophene-3-carbonitrile]
< 5 µM: all assays above

C[C@H](Oc1nc(N2CCCC3(CCN3)C2)c2cc(Cl)c(-c3ccc(F)c4sc(N)c(C#N)c34)c(F)c2n1)[C@@H]1CCCN1C (stereo partly drawn) [Compound 210, 2-amino-4-(6-chloro-8-fluoro-2-((S)-1-((S)-1-methylpyrrolidin-2-yl)ethoxy)-4-(1,6-diazaspiro[3.5]nonan-6-yl)quinazolin-7-yl)-7-fluorobenzo[b]thiophene-3-carbonitrile]
< 5 µM: all assays above

N#Cc1c(N)sc2c(F)ccc(-c3c(Cl)cc4c(N5CCC6(CCN6C(=O)n6nccn6)C5)nc(OC[C@@]56CCCN5C[C@H](F)C6)nc4c3F)c12 (stereo partly drawn) [Compound 300, 4-(4-(1-(2H-1,2,3-triazole-2-carbonyl)-1,6-diazaspiro[3.4]octan-6-yl)-6-chloro-8-fluoro-2-(((2R,7aS)-2-fluorotetrahydro-1H-pyrrolizin-7a(5H)-yl)methoxy)quinazolin-7-yl)-2-amino-7-fluorobenzo[b]thiophene-3-carbonitrile]
< 5 µM: all assays above

N#Cc1c(N)sc2c(F)ccc(-c3c(Cl)cc4c(N5CCC6(CCN6C(=O)n6cnc(C(F)(F)F)n6)C5)nc(OC[C@@]56CCCN5C[C@H](F)C6)nc4c3F)c12 (stereo partly drawn) [Compound 292, 2-amino-4-(6-chloro-8-fluoro-2-(((2R,7aS)-2-fluorotetrahydro-1H-pyrrolizin-7a(5H)-yl)methoxy)-4-(1-(3-(trifluoromethyl)-1H-1,2,4-triazole-1-carbonyl)-1,6-diazaspiro[3.4]octan-6-yl)quinazolin-7-yl)-7-fluorobenzo[b]thiophene-3-carbonitrile]
< 5 µM: all assays above
